In patent US20160319277A1, “METHODS OF IMPROVED PROTEIN PRODUCTION USING MIRNAs AND SIRNAs” (THE JOHNS HOPKINS UNIVERSITY, priority 2015, published 2016):

Experiments:
[1] = system: CMV-Luc2-HygroHEK293 cell line; assay: Validation of miRNAs with luciferase-expressing cells (ONE-Glo / CellTiter-Glo, 12-well); format: cell-based, human; conditions: 40 nM miRNA, 72 h
Protocol: CMV-Luc2-HygroHEK293 cell line constitutively expressing luciferase is purchased from Promega. Validation transfections were performed in 12-well plates with miScript miRNA mimics (Qiagen, Cat. No. 219600-S0), SilencerSelect™ Negative Control #2 and lethal control siRNA (Qiagen AllStars Cell Death Control™) served as a control for transfection efficiency. Cells were transfected in duplicates as described above in the screening method with the following modification: 0.1 million cells were transfected with 40 nM miRNA using 6.25 ul Lipofectamine™ RNAiMax in a total volume of 1 mL of media. 72 hours after transfection, 500 μL of ONE-Glo™ Reagent (Promega) was added to one set of replicates for luciferase activity quantification and 500 μL of CellTiter-Glo™ Reagent (Promega) was added to the second set of replicates for viable cell density measurement. All plates were incubated at room temperature for 20 minutes to stabilize luminescent signal and then measured with SpectraMax i3™ plate reader (Molecular Devices). Per cell luciferase production was calculated from overall luciferase activity and viable cell number.

HEK-GPC3-hFc cell line = assay: Validation of miRNAs with GPC3-hFc-expressing cells (ELISA and cell count); format: cell-based, human; conditions: 40 nM miRNA, 6 days after transfection, versus siN.C.
Protocol: HEK-GPC3-hFc cell line constitutively secreting glypican-3 hFc-fusion protein (GPC3-hFc) was a gift from the National Cancer Institute of the NIH. Cells were grown in DMEM supplemented with 10% FBS in a humidified incubator set at 37° C. and 5% CO2.
Cells were transfected in 12-well plates as described above in the screening method with the following modification: 0.15 million cells were transfected with 40 nM miRNA using 6.25 ul Lipofectamine™ RNAiMax in a total volume of 1 mL of media. 6 days after transfection, cell culture supernatant was collected and cleared using centrifuge for GPC3-hFc concentration determination with ELISA and cells were detached and counted by trypan blue exclusion using a CEDEX™ cell quantification system (Roche, Mannheim, Germany). Per cell GPC3-hFc production can be calculated from overall GPC3-hFc yield and viable cell number.
AffiniPure™ F(ab′)2 Fragment Goat Anti-Human IgG (min X Bov, Ms, Rb Sr Prot, Cat. 109-006-170, Jackson Immunology) was used to coat a 96-well plate at 5 μg/mL in PBS buffer, 50 μL per well, at 4° C. overnight. After the plate was blocked with 2% BSA in PBS buffer, pre-diluted cell culture supernatant was added, and the plate was incubated at room temperature for one hour to allow binding to occur. After the plate was washed twice with PBS containing 0.05% Tween 20, Peroxidase-conjugated AffiniPure™ Goat-anti-uman IgG (Cat. 109-035-098, Jackson Immunology) was added at 1:4000 dilutions, 50 ul/well. Following incubating at room temperature for one hour, the plate was washed 4 times and detected with Peroxidase Substrate System (KPL).

[2] = system: T-REx-293-NTSR1-GFP cells; assay: High-throughput human miRNA mimic library screen, image-based per cell green fluorescence (NTSR1-GFP expression); conditions: per cell green fluorescence intensity; for MAD-based z-score: 72 h after transfection plus 24 h tetracycline induction
Protocol: T-REx-293-NTSR1-GFP cells were screened with a miRNA mimic library (Qiagen) based on Sanger miRBase™ 13.0 and consisting of 875 miRNAs mimics. For transfection, 0.8 pmol of each mimic was spotted to 384 well plate wells (Corning) and 20 μL of serum-free DMEM containing 0.1 μL of Lipofectamine™ RNAiMax (Life Technologies) was then added to each well. This lipid-miRNA mixture was incubated at ambient temperature for 30 min prior to adding 2000 cells in 20 μL of DMEM containing 20% certified FBS (Gibco). Transfected cells were incubated at 37° C. in 5% CO2 for 72 hours and induced with 1 μg/mL tetracycline for 24 hours for NTSR1-GFP expression. Cells were then fixed with 2% paraformaldehyde (Electron Microscopy Sciences), stained with Hoechst™ 33342 (Life Technologies) for 45 minutes and gently washed with PBS. Plates were imaged with an ImageXpress Micro XL™ (Molecular Devices). Total cell number and per cell green fluorescence intensity were calculated using MetaXpress™ software (Molecular Devices) employing the Multi-Wavelength Cell Scoring™ application module. […] A full column of positive control siRNA targeting GFP (GFP-22 siRNA, Qiagen) was also used as on-plate reference for transfection efficiency. The median absolute deviation (MAD)-based z-score was calculated for each sample.

NTSR1 = assay: [3H]NT binding assay on detergent-solubilized cells for functional expression of NTSR1; format: cell-based; conditions: [3H]NT binding
Protocol: Validation transfections were performed in 12-well plates with miScript™ miRNA mimics (Qiagen, Cat. No. 219600-S0), SilencerSelect™ Negative Control #2 and lethal control siRNA (Qiagen AllStars Cell Death Control™) served as a control for transfection efficiency. Cells were transfected as described for screening except 0.15 million cells were transfected with 40 nM miRNA using 6.25 ul Lipofectamine™ RNAiMax in a total volume of 1 mL of media. 72 hours after transfection, cells were induced with 1 μg/mL tetracycline. 24 hours later, cells from each well were detached with non-enzymatic cell dissociation buffer (Gibco, Cat. No. 13150-016) and washed twice with cold PBS. Cell densities and viability were determined by trypan blue exclusion using a CEDEX™ cell quantification system (Roche, Mannheim, Germany). Based on the counts, cell densities were adjusted to 0.5 million cells/ml with PBS and then subject to flow cytometry analysis. The remaining cells were pelleted and frozen on dry ice for [^3H]NT binding assays.
The detergents n-Dodecyl-β-D-maltoside (LM), 3-[(3-cholamidopyropyl) dimethylammonio]-1-propane sulfonate (CHAPS) and cholesteryl hemisuccinate Tris salt (CHS) were obtained from Anatrace. Cell pellets from 2 mL of suspension culture were suspended in Tris-glycerol-NaCl buffer. Then the detergents LM, CHAPS and CHS were added to give a final buffer composition of 50 mM TrisHCl pH 7.4, 200 mM NaCl, 30% (v/v) glycerol, 1% (w/v) LM, and 0.6% (w/v) CHAPS and 0.12% (w/v) CHS in a total volume of 0.5 mL. The samples were placed on a rotating mixer at 4° C. for 1 hour. Cell debris and non-solubilized material were removed by ultracentrifugation (TL100 rotor, 60 k rpm, 4° C., 30 min in Optima Max™ bench-top ultracentrifuge, Beckman), and the supernatants containing detergent-solubilized NTSR1 were used to determine the total number of expressed receptors by a detergent-based radio-ligand binding assay (see below).
Tritiated neurotensin agonist [^3H]NT ([3,11-tyrosyl-3,5-^3H(N)]-pyro[…] SEQ ID NO:27) was purchased from Perkin Elmer. Ligand-binding assays with detergent-solubilized receptors were carried out in TEBB assay buffer (50 mM Tris pH 7.4, 1 mM EDTA, 40 μg/mL bacitracin, 0.1% BSA) containing 0.1% (w/v) LM, 0.2% (w/v) CHAPS and 0.04% (w/v) CHS. For one-point assays, receptors were incubated with 2 nM [^3H]NT on ice for 1 hour in a volume of 150 μL. The concentration of [^3H]NT used was at least 5-fold above the apparent dissociation constants for detergent-solubilized NTSR1 to allow high receptor occupancy. Separation of the receptor-ligand complex from free ligand (100 μL) was achieved by centrifugation-assisted gel filtration using Bio-Spin™ 30 Tris columns (BioRad), equilibrated with RDB buffer (50 mM Tris-HCl, pH 7.4, 1 mM EDTA, 0.1% (w/v) LM, 0.2% (w/v) CHAPS, 0.04% (w/v) CHS). Non-specific [^3H]NT binding of 220 dpm was subtracted from total binding to calculate the total amount of receptors in T-REx-293-NTSR1-GFP cells. The number of functional NTSR1 was estimated by specific [^3H]NT binding assuming one ligand-binding site per receptor molecule. The number of cells in the assay was derived by cell counting at cell harvest. This approach led to the calculation of the parameter “receptors/cell”.

HEK-CMV-Luc2-Hygro cells = assay: Effect of exogenous polyamines on luciferase expression and cell growth; conditions: for concentration with inhibitory effects: culture medium with ruminant serum; for effect of higher concentrations on luciferase expression and viable cell: concentrations above the optimum
Protocol: FIG. 13: Effect of exogenous polyamines on luciferase expression and cell growth. Two different passages of cells were treated with the indicated concentrations of polyamines and each biological sample was measured in triplicates. Error bars represent SEM.
To further verify this, the impacts of exogenously added polyamines on luciferase expression level and viable cell number were determined.

Molecule | Signal relative to negative control (%) [2] [%] | MAD-based z-score [2] | other results
AGUUCUUCAGUGGCAAGCUUUA (listed as RNA, chemistry not given here; listed as Homo sapiens) [miR-22-5p, human miRNA mimic] | 215 | 4.0 | improvement of luciferase expression (per cell luciferase activity) ([1]; 12-well, versus siN.C.): relevant for improving luciferase expression; change of overall GPC3-hFc production (HEK-GPC3-hFc cell line): effectively enhanced overall GPC3-hFc; improvement of per cell GPC3-hFc secretion (HEK-GPC3-hFc cell line): enhanced per cell GPC3-hFc secretion
AUCGCUGCGGUUGCGAGCGCUGU (listed as RNA, chemistry not given here; listed as Homo sapiens) [miR-639, human miRNA mimic] | 165 | 2.4 | improvement of functional expression of NTSR1 compared with siN.C. (NTSR1): not associated with enhanced binding activity
NCCCCNCCCN [spermidine] |  |  | increase in cell growth (HEK-CMV-Luc2-Hygro cells; at 10 μM): 24%; increase in luciferase expression (HEK-CMV-Luc2-Hygro cells; at 20 μM): 36%; concentration with inhibitory effects (HEK-CMV-Luc2-Hygro cells): > 100 µM
UGGUUGUAGUCCGUGCGAGAAUA (listed as RNA, chemistry not given here; listed as Homo sapiens) [miR-1974, human miRNA mimic] | 201 | 3.6 | 
ACUCUUUCCCUGUUGCACUAC (listed as RNA, chemistry not given here; listed as Homo sapiens) [miR-130b-5p, human miRNA mimic] | 178 | 2.9 | 
AAGCUGCCAGUUGAAGAACUGU (listed as RNA, chemistry not given here; listed as Homo sapiens) [miR-22-3p, human miRNA mimic] | 158 | 2.3 | cell growth (viable cell density) [1]: inhibited cell growth; overall production of luciferase higher than negative control siN.C. [1]: 127%; change of overall GPC3-hFc production (HEK-GPC3-hFc cell line): effectively enhanced overall GPC3-hFc; improvement of per cell GPC3-hFc secretion (HEK-GPC3-hFc cell line): enhanced per cell GPC3-hFc secretion
NCCCNCCCCNCCCN [spermine] |  |  | increase in luciferase expression (HEK-CMV-Luc2-Hygro cells; at 10 μM): 16%; effect of higher concentrations on luciferase expression and viable cell (HEK-CMV-Luc2-Hygro cells): caused reduction in both luciferase expression and viable cell; concentration with inhibitory effects (HEK-CMV-Luc2-Hygro cells): > 20 µM
NCCCCN [putrescine] |  |  | increase of luciferase expression (HEK-CMV-Luc2-Hygro cells; added to medium at 100 μM): up to 40%; enhanced growth (HEK-CMV-Luc2-Hygro cells; addition at 50 μM): 10%; effect of higher concentrations on luciferase expression and viable cell (HEK-CMV-Luc2-Hygro cells): did not lead to further enhancement of luciferase production
GUGUGUGGAAAUGCUUCUGC (listed as RNA, chemistry not given here; listed as Homo sapiens) [miR-147a, human miRNA mimic] | 168 | 2.6 | 
CUAUACAGUCUACUGUCUUUCC (listed as RNA, chemistry not given here; listed as Homo sapiens) [let-7f-2-3p, human miRNA mimic] | 178 | 3.0 | 
AACUGGCCUACAAAGUCCCAGU (listed as RNA, chemistry not given here; listed as Homo sapiens) [miR-193a-3p, human miRNA mimic] | 156 | 2.3 | 
CUUUUUGCGGUCUGGGCUUGC (listed as RNA, chemistry not given here; listed as Homo sapiens) [miR-129-5p, human miRNA mimic] | 172 | 2.7 | improvement of functional expression of NTSR1 compared with siN.C. (NTSR1): not associated with enhanced binding activity
UGAGUGCCGGUGCCUGCCCUG (listed as RNA, chemistry not given here; listed as Homo sapiens) [miR-1909-5p, human miRNA mimic] | 169 | 2.6 | 
AGGAGGCAGCGCUCUCAGGAC [miR-650] | 163 | 2.5 | 
ACCUGGCAUACAAUGUAGAUUU (listed as RNA, chemistry not given here; listed as Homo sapiens) [miR-221-5p, human miRNA mimic] | 248 | 5.3 | improvement of functional expression of NTSR1 compared with siN.C. (NTSR1): not associated with enhanced binding activity
